Measured values taken from patent US20230285570A1, “THERAPEUTICALLY USEFUL CURE-PRO MOLECULES FOR E3 LIGASE MEDIATED DEGRADATION OF PROTEINS, AND METHODS OF MAKING AND USING THEM” (CORNELL UNIVERSITY, priority 2020, published 2023).
Entries after “also recorded” stand apart in the source; their conditions may differ.

Assays:
[1] = test system: SLC19A1; test: RT-PCR of c-MYC downstream target gene SLC19A1 in HeLa cells; format: cell-based, Human; details: single compound, HeLa, 10 μM, 24 h
Procedure: The suppression of the expression of the downstream c-MYC target, SLC19A1, was measured by RT-PCR using Power SYBR® Green Cells-to-Ct™ Kit (Life Technologies). Adherent cells were plated on 96 well plates at 5,000 cells per well were treated for 24 h with monomer compounds and compounds capable of reversible interactions (1 nM-100 μM). Cells were subsequently washed in ice-cold PBS processed according to the manufacturer's instructions. Quantitative real-time PCR was performed using a ViiA™ 7 Real-time PCR System (Applied Biosystems, Foster City, Calif., USA). GAPDH and ACTB served as internal controls.
HeLa cells (1×10^4) were treated for 24 hours in 96 well plates with the compounds solubilized in DMSO. Compounds were added at 10 μM each and RNA expression measured by the Cells-to Ct method described above (Thermofisher).

[2] = test system: caspase 3/7; test: Caspase-Glo 3/7 assay, Namalwa cells; format: cell-based; details: 1:1 with CRBN ligand 8047, Namalwa, 24 h
Procedure: Caspase-glo® assay (Promega) was conducted following the manufacturer's recommendations. Cells were seeded at a density of 5000 cells/well in a white 96 well plates (Corning, #3917) in a total volume of 100 μl with respective monomers, combinations of BRD ligands together with E3 ligase ligands or vehicle control treatment. After a 24 h incubation, 100 μl of the […] substrate was added per well and luminescence was read on a Spectramax M5 (Molecular Devices).
Namalwa cells (5×10^4) were treated for 24 hours with the compounds solubilized in DMSO. FIG. 57 is a bar graph depiction of fold increase of apoptosis assessed via caspase 3/7 activity using the Caspase-Glo assay (Promega) described above.
Molm-13 (FIG. 76A) or Namalwa (FIG. 76B) cells (5×10^4) were treated for 24 hours with the compounds solubilized in DMSO in white 96 well plates (10 nM-10 μM solubilized in DMSO). FIG. 76 is a bar graph depiction of fold increase of apoptosis assessed via caspase 3/7 activity using the Caspase-Glo assay (Promega) described above.

[3] = target: T1, BRD4 (Homo sapiens, UniProt O60885); test: Summary of BRD4 degradation by CURE-PRO pairs, estimated from Western Blot or WES; format: cell-based; design: endogenous in cells
In short: (§1)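 Namalwa, Ramos, HeLa, MCF7, HT29 or HCT116 cells treated 24 h with compounds in DMSO; RIPA lysates analysed by Western blot (ECL) or capillary WES immunodetection. Check mark denotes 30% to 70% or higher protein degradation.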

[4] = target: T1, BRD4; test: CURE-PRO-mediated BRD4 degradation in HeLa cells, WES capillary electrophoresis (ProteinSimple); format: cell-based; design: endogenous in cells; host or cells: HeLa
Procedure: All cell lines were purchased from ATCC or DSMZ and grown at 37° C. with 5% CO2. Human HeLa cells were cultured in complete growth medium (Dulbecco's modified Eagle's medium (DMEM) supplemented with 10% FBS); MCF7 cells were cultured in complete growth medium (Dulbecco's modified Eagle's medium (DMEM) supplemented with 10% FBS and 0.01 mg/ml human recombinant insulin (Sigma Aldrich); Namalwa and Ramos cells were cultured in complete growth medium (RPMI 1640 medium supplemented with 10% FBS); HCT116 and HT29 cells were cultured in complete growth medium (McCoy's 5a Medium supplemented with 10% FBS). For cellular degradation of BRD4 studies cells were seeded in a 12-well plate at 70-80% confluency, allowed to attach overnight, and incubated with the indicated compounds for the indicated time. When indicated, a 15-minute pretreatment with 10 μM pomalidomide, 10 μM VHL298, 10 μM Nutlin3a, 1 μM MG-132 or 1 μM Carfilzomib was performed before the addition of CURE-PROs. For washout studies, after CURE-PRO treatment, media was aspirated and incubated with complete medium for the indicated time before lysis.
(§2) WES Simple analysis was performed on WES system (ProteinSimple-Biotechne) according to the manufacturer's instructions. Total protein concentrations of cell lysates were determined by the Pierce BCA kit (Thermo Fisher). 3 μL of 0.3 μg/μL of the protein lysate was loaded onto a 12- to 230-kDa WES assay plate (ProteinSimple) where 300 nL sample was withdrawn through a capillary, subjected to electrophoretic separation of proteins by size, and followed by the simultaneous, HRP-based detection of proteins using the Anti-Rabbit Detection Module (Proteinsimple: #DM-001). The electropherograms were checked then the automatic peak detection was manually corrected if it was required.
HeLa cells (2.5×10^6) were treated for 4-24 hours with the compounds solubilized in DMSO. After 4 hours, indicated points were washed and cells were left in full growth media. Compounds were added at 10 μM each. Standardized protein samples were electrophoresed and imaged as described in the WES ProteinSimple section above. FIGS. 44 and 45 depict the time-dependence of CURE-PRO-mediated BRD4 degradation with the BRD-E52 ligand (FIG. 44) and BRD-E72 ligand (FIG. 45), both JQ1 derivatives comprising of boronic acid linkers, and the CRBN binding ligands (8046, 8047, and 8066), pomalidomide derivatives comprising diol linkers.
HeLa cells (2.5×10^6) were treated for 24 hours with the compounds solubilized in DMSO. Compounds were added at 100 nM-10 μM each. Standardized protein samples were electrophoresed and imaged as described in the WES ProteinSimple section above. FIG. 46 depicts the concentration-dependence of CURE-PRO-mediated BRD4 degradation and the requirement for monomer dimerization.

[5] = target: T1, BRD4; test: CURE-PRO-mediated BRD4 degradation in HeLa cells, Western blot; format: cell-based; design: endogenous in cells; host or cells: HeLa; details: 24 h
In short: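 HeLa cells (2.5×10^6) treated 24 h with DMSO-solubilized compounds, degrader pairs combined 1:1, at 1 nM-1 μM, 1-10 μM, 10 μM or 10 and 100 μM each depending on series. RIPA lysates (10-20 μg protein) run on SDS-PAGE and immunoblotted for BRD4 with ECL detection.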

[6] = target: T2, c-MYC (Homo sapiens, UniProt P01106); test: CURE-PRO-mediated c-MYC degradation in HCT1116 cells, Western blot or WES; format: cell-based; design: endogenous in cells; host or cells: HT29
T2 sequence (P01106 whole entry): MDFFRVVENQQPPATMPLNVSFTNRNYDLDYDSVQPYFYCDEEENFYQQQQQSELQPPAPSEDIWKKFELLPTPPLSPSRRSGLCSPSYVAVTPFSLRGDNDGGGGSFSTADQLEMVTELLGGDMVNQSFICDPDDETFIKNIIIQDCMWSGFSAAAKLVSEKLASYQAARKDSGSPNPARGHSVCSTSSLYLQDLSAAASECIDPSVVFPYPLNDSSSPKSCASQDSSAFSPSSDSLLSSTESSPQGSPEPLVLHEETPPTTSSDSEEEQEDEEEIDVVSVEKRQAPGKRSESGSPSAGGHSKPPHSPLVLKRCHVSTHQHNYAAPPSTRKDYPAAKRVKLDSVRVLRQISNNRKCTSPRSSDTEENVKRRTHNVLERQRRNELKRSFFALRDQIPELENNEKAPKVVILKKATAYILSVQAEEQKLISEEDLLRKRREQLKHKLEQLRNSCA
Procedure: (§3) Namalwa, Ramosm HeLa, MCF7, or HT29 HCT116 cells (2.5-3×10^6) were treated for 24 hours with the indicated compounds solubilized in DMSO. The cells were washed in ice-cold PBS and were then lysed in RIPA lysis buffer (150 mM NaCl, 5 mM EDTA, 1% NP-40, 0.5% sodium deoxycholate, 0.1% SDS, 50 mM Tris, pH 8.0.) with Roche protease inhibitor complete cocktail and phosphatase inhibitors (10 mM sodium fluoride, 10 mM sodium pyrophosphate, 1 mM sodium orthovanadate and 20 mM β-glycerophosphate). The total protein concentrations were determined by Bradford Protein Assay (Pierce) and 10-20 μg of protein was loaded onto 4-15% Tris-Glycine gradient gels (Biorad). After standard gel electrophoresis, the separated proteins were transferred to PVDF membrane by wet transfer. The immunoblots were then blocked for 1 hour in 5% skim milk in TBST or 5% BSA in TBST, according to manufacturer's instructions, before an overnight incubation at 4° C. with indicated antibodies and membranes. Membranes were then incubated with the appropriate horseradish peroxidase-conjugated secondary antibodies (1:5,000 dilution) for 1 h at room temperature and the bands were visualized using the Clarity Max Western ECL Substrate (Biorad) and the ChemiDoc Imaging System (Biorad). Signal was detected with ECL Western Blotting Substrate (Pierce) and X-ray film processed with a Konica SRX-101 X-ray film processor or captured by Bio-Rad's Chemidoc Imaging system.
as §2
HCT1116 cells (2.5×10^6) were treated for 24 h with the compounds solubilized in DMSO. Compounds were added at 10 nM-10 μM each. Standardized protein samples were electrophoresed and imaged as described in the immunoblotting or WES (Proteinsimple) sections above. c-MYC monomers, MYC-N20 (FIG. 100, a 10074-G5 derivative comprising diol linkers), and MYC-N10 (FIG. 101), MYC-N6 (FIG. 102), and MYC-N9 (FIG. 103) (10058-F4 derivatives comprising diol linkers), and MDM2 ligands, 8310 and 8312 (Nutlin 3a derivatives comprising boronic acid linkers) were combined in a 1:1 ratio.
HCT1116 cells (2.5×10^6) were treated for 24 h with the compounds solubilized in DMSO. Compounds were added at 1 μM-10 μM each.

[7] = target: T2, c-MYC; test: Summary of C-MYC degradation by CURE-PRO pairs, estimated from Western Blot or WES; format: cell-based; design: endogenous in cells; host or cells: HT29
In short: as §1

[8] = test system: Aiolos and Ikaros; test: Aiolos and Ikaros expression in Ramos cells, Western blot; format: cell-based; details: monomer alone, 100 nM-10 μM, 24 h
Procedure: as §3
(§4) Namalwa (FIG. 78) or Ramos (FIG. 79) cells (5×10^6) were treated for 24 h with the compounds solubilized in DMSO. Compounds were added at 100 nM-10 μM each. Standardized protein samples were electrophoresed and imaged as described in the immunoblotting section above. FIGS. 78 and 79 depict the effects of the E3 ubiquitin ligase CURE-PRO monomer ligands (100 nM-10 μM, 24 h) targeting Cereblon on the expression of Aiolos and Ikaros, two downstream proteins that are known to be ubiquitinated and degraded after IMiDs bind to CRBN.

[9] = test system: Aiolos and Ikaros; test: Aiolos and Ikaros expression in Namalwa cells, Western blot; format: cell-based; details: monomer alone, 100 nM-10 μM, 24 h
Procedure: as §3, §4

## Cc1sc2c(c1C)C(c1ccc(Cl)cc1)=N[C@@H](CC(=O)Nc1ccc(OCCOCCOCCOCCNc3cccc4c3C(=O)N(C3CCC(=O)NC3=O)C4=O)cc1)c1nnc(C)n1-2 (stereo partly shown) [ARV-825, reference compound]
[1]
  suppression of SLC19A1 expression: Complete suppression; also recorded: completely suppressed

## CCNC(=O)C[C@@H]1N=C(c2ccc(Sc3cccc(B(O)O)c3)cc2)c2cc(OC)ccc2-n2c(C)nnc21 [BRD-E52, (3-((4-((4S)-4-(2-(ethylamino)-2-oxoethyl)-8-methoxy-1-methyl-4H-benzo[f][1,2,4]triazolo[4,3-a][1,4]diazepin-6-yl)phenyl)thio)phenyl)boronic acid]
[2]
  caspase 3/7 activation: demonstrates activation of caspase 3/7; also recorded: marked caspase activation
[3]; Table 1, aryl-boronic acid BRD4 ligand + 8047
  Degradation of BRD4, combination with CRBN ligand 8047: √ (A black check mark indicates efficacy of 30% to 70% or higher protein degradation)
[3]; Table 1, aryl-boronic acid BRD4 ligand + 8066
  Degradation of BRD4, combination with CRBN ligand 8066: √ (A black check mark indicates efficacy of 30% to 70% or higher protein degradation)
[4]; co-dosed with 8047, 10 μM each, washed after 4 h
  sustained BRD4 degradation after drugs are washed out: up to 8 h
[4]; co-dosed with CRBN ligand 8047, HeLa, 10 μM each, 4-24 h
  BRD4 degradation, time course: marked BRD4 degradation after 4 h
[4]; co-dosed with CRBN ligand 8047, HeLa, 24 h, 100 nM-10 μM each
  concentration-dependent BRD4 degradation: marked BRD4 degradation
[4]; with CRBN ligand 8047, HeLa, 24 h, 100 nM-10 μM each
  concentration from which BRD4 protein expression decreases: ≥ 300 nM
[5]; 1:1 with 8047, 10 μM, pomalidomide preincubated 15 min at equimolar concentration
  BRD4 degradation after pomalidomide preincubation: inhibition of CURE-PRO-mediated BRD4 degradation
[5]; BRD ligand with pomalidomide (no 8047), HeLa, 10 μM
  BRD4 degradation: failed to induce BRD4 degradation
[5]; co-treated 1:1 with CRBN ligand 8047, HeLa, 10 μM each
  BRD4 degradation: causes degradation of BRD4; also recorded: CURE-PRO-mediated degradation of BRD4

## CCc1ccc(/C=C2\SC(=O)N(CCOCCNC(=O)c3cccc(B(O)O)c3)C2=O)cc1 [MYC-E4]
[6]; 1:1 with MDM2 ligand 8313, HCT1116, 24 h, 1 μM-10 μM each
  c-MYC degradation: had no effect
[6]; 1:1 with MDM2 ligand 8314, HCT1116, 24 h, 1 μM-10 μM each
  c-MYC degradation: caused degradation of c-MYC protein at 10 μM; also recorded: Degradation was noted
[6]; monomer dosed alone, HCT1116, 24 h
  c-MYC degradation: No loss of c-MYC protein was noted
[7]; Table 7, aryl-boronic acid MYC ligand + 8047
  Degradation of C-MYC, combination with CRBN ligand 8047: √ (A black check mark indicates efficacy of 30% to 70% or higher protein degradation)
[7]; Table 8, aryl-boronic acid MYC ligand + 8314
  Degradation of C-MYC, combination with MDM2 ligand 8314: √ (A black check mark indicates efficacy of 30% to 70% or higher protein degradation)

## Nc1cccc2c1C(=O)N(C1CCC(=O)NC1=O)C2=O (stereo not shown) [Pomalidomide, pomalidomide, reference compound]
[8]
  expression of Aiolos and Ikaros: caused greater loss of Aiolos and Ikaros protein than the CURE-PRO derivatives at equimolar concentrations
[9]
  expression of Aiolos and Ikaros: caused greater loss of Aiolos and Ikaros protein than the CURE-PRO derivatives at equimolar concentrations
[1]
  suppression of SLC19A1 expression: no suppression
